Measured values reported in ChEMBL document CHEMBL6078670, “Discovery of a potent and selective TRPC3 antagonist with neuroprotective effects” (Bioorg Med Chem, 2025).
Converted amounts (≈) assume the structure as drawn. The source made the active and inactive calls. The rule behind the calls is not given here.

Tests used:
[1] = biological target: Short transient receptor potential channel 1 (Mus musculus) (UniProt Q61056); assay: Antagonist activity at mouse TRPC1 expressed in HEK293 cells assessed as inhibition of carbachol-induced activity at 10 uM measured after 48 hrs by Whole-cell patch clamp electrophysiology; type: cell-based
Sequence of Short transient receptor potential channel 1 (Mus musculus) (Q61056 whole entry): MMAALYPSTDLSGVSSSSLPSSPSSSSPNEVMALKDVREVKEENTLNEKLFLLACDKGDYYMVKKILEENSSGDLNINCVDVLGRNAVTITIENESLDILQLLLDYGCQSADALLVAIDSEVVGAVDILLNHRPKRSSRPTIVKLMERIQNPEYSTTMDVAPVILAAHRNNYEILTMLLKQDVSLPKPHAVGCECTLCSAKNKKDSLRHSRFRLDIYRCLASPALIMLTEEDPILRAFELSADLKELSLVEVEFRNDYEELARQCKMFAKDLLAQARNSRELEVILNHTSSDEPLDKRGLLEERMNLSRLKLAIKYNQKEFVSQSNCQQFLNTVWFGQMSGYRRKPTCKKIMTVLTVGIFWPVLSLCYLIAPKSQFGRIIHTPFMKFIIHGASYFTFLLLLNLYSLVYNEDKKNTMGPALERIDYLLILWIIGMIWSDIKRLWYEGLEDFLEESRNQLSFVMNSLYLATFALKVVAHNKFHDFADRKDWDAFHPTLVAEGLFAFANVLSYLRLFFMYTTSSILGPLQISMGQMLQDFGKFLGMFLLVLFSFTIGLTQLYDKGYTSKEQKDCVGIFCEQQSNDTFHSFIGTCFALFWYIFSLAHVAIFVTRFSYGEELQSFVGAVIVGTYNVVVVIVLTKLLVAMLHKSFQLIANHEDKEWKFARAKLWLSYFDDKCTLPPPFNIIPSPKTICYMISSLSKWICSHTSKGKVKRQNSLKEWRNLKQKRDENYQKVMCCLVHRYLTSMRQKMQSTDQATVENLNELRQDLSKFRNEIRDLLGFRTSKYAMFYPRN

[2] = biological target: Transient receptor potential cation channel subfamily M member 8 (Rattus norvegicus) (UniProt Q8R455); assay: Antagonist activity at rat TRPM8 expressed in HEK293 cells assessed as inhibition of carbachol-induced activity at 10 uM measured after 48 hrs by Whole-cell patch clamp electrophysiology; type: cell-based
Sequence of Transient receptor potential cation channel subfamily M member 8 (Rattus norvegicus) (Q8R455 whole entry, looked up): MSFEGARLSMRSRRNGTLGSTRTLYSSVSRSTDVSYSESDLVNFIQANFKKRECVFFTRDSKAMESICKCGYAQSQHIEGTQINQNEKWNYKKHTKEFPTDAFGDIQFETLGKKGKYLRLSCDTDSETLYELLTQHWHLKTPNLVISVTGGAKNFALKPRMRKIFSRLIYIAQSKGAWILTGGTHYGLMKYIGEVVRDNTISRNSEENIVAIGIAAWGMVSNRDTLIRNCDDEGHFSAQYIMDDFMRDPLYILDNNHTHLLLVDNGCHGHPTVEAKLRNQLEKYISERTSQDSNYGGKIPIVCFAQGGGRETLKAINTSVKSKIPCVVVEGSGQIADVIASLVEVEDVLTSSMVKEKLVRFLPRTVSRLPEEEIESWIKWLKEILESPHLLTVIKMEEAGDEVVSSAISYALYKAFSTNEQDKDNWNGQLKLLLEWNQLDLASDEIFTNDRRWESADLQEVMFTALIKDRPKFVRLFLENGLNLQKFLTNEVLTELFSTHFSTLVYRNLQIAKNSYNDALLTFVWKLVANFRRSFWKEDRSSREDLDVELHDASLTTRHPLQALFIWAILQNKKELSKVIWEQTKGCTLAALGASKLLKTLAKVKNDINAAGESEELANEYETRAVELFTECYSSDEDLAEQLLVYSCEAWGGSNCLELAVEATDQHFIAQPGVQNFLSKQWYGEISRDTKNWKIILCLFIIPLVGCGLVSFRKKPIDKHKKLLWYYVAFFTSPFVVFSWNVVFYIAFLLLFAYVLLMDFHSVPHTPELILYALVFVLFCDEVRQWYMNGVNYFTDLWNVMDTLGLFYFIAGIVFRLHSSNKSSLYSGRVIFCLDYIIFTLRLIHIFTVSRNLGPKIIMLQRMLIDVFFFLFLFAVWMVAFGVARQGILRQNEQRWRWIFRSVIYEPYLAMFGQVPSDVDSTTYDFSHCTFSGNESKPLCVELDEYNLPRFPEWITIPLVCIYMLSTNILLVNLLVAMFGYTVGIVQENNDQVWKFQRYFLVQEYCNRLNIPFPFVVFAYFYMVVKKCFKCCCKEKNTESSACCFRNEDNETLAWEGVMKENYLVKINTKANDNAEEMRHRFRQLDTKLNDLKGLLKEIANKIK

[3] = biological target: T1, Short transient receptor potential channel 7 (Homo sapiens) (UniProt Q9HCX4); assay: Antagonist activity at human TRPC7 expressed in HEK293 cells assessed as inhibition of carbachol-induced activity at 10 uM measured after 48 hrs by Whole-cell patch clamp electrophysiology; type: cell-based
T1 sequence (whole entry): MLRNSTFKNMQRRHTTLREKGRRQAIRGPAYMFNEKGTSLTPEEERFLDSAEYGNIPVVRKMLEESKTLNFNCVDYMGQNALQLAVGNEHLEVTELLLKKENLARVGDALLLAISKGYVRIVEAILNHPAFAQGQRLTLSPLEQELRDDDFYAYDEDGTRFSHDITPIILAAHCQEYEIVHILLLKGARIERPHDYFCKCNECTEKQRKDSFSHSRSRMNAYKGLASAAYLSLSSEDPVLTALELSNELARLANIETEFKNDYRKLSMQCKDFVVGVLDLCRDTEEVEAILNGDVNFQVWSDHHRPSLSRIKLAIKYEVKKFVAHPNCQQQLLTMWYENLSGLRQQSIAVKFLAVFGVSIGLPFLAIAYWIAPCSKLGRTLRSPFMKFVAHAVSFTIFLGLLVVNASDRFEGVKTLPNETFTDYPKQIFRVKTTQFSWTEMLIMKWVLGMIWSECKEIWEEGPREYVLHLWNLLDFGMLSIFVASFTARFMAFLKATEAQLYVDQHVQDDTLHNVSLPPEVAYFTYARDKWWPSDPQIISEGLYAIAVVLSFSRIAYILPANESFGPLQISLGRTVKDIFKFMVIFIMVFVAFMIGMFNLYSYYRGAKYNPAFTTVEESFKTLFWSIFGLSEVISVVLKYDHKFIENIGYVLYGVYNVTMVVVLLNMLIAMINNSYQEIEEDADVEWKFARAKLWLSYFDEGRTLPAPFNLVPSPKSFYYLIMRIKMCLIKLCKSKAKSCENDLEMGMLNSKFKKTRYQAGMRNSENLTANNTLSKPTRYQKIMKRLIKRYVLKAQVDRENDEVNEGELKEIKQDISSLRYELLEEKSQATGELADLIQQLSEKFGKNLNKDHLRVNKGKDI

[4] = biological target: T2, Short transient receptor potential channel 6 (Homo sapiens) (UniProt Q9Y210); assay: Antagonist activity at human TRPC6 expressed in HEK293 cells assessed as inhibition of carbachol-induced activity at 10 uM measured after 48 hrs by Whole-cell patch clamp electrophysiology; type: cell-based
T2 sequence (whole entry): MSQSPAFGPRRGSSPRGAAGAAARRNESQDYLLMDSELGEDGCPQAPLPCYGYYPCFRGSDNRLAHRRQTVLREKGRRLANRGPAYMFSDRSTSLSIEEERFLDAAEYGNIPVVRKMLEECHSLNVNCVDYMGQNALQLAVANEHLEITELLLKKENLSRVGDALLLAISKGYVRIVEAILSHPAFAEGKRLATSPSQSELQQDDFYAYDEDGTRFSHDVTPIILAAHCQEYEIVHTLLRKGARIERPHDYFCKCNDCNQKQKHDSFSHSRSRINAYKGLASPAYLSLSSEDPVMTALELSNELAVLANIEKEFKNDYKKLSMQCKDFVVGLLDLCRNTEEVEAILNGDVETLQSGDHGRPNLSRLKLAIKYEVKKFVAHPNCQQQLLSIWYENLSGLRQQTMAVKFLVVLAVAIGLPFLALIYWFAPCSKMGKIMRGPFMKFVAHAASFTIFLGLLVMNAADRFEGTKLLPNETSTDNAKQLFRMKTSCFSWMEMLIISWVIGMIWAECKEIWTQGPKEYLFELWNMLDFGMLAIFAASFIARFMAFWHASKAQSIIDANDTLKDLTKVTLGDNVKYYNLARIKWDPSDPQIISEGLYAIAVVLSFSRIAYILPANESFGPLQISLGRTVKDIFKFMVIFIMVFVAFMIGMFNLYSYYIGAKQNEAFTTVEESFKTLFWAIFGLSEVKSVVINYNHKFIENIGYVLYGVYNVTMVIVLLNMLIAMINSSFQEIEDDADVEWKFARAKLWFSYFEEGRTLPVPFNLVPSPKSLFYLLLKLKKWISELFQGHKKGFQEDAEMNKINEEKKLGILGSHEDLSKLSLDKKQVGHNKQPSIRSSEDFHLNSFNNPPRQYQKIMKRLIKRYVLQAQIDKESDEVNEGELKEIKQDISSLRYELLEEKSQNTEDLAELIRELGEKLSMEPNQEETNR

[5] = biological target: Short transient receptor potential channel 1 (Rattus norvegicus) (UniProt Q9QX01); assay: Antagonist activity at rat TRPC1 expressed in HEK293 cells assessed as inhibition of carbachol-induced activity at 10 uM measured after 48 hrs by Whole-cell patch clamp electrophysiology; type: cell-based
Sequence of Short transient receptor potential channel 1 (Rattus norvegicus) (Q9QX01 whole entry): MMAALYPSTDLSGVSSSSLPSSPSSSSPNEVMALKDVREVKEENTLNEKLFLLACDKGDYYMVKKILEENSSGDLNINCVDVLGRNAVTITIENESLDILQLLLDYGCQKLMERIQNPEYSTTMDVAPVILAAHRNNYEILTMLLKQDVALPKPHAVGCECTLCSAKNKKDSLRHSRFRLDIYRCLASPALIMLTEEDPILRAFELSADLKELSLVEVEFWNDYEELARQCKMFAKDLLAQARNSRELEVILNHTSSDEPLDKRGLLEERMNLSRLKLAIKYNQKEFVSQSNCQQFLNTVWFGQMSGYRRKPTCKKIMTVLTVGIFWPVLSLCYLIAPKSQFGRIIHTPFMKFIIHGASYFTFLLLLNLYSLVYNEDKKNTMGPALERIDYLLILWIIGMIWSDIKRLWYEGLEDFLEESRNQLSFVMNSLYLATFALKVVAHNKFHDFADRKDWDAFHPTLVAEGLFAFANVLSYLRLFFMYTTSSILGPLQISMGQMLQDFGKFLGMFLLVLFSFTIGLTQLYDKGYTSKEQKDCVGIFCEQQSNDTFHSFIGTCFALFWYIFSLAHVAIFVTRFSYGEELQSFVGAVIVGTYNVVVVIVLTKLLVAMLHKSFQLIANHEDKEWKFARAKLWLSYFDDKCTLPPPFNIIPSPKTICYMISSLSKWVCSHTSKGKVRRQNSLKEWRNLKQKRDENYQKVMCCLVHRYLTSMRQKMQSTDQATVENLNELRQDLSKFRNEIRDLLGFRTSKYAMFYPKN

[6] = biological target: T3, Short transient receptor potential channel 3 (Homo sapiens) (UniProt Q13507); assay: Antagonist activity at human TRPC3 expressed in HEK293 cells assessed as inhibition of carbachol-induced activity at 10 uM measured after 48 hrs by Whole-cell patch clamp electrophysiology relative to control; type: cell-based
T3 sequence (whole entry): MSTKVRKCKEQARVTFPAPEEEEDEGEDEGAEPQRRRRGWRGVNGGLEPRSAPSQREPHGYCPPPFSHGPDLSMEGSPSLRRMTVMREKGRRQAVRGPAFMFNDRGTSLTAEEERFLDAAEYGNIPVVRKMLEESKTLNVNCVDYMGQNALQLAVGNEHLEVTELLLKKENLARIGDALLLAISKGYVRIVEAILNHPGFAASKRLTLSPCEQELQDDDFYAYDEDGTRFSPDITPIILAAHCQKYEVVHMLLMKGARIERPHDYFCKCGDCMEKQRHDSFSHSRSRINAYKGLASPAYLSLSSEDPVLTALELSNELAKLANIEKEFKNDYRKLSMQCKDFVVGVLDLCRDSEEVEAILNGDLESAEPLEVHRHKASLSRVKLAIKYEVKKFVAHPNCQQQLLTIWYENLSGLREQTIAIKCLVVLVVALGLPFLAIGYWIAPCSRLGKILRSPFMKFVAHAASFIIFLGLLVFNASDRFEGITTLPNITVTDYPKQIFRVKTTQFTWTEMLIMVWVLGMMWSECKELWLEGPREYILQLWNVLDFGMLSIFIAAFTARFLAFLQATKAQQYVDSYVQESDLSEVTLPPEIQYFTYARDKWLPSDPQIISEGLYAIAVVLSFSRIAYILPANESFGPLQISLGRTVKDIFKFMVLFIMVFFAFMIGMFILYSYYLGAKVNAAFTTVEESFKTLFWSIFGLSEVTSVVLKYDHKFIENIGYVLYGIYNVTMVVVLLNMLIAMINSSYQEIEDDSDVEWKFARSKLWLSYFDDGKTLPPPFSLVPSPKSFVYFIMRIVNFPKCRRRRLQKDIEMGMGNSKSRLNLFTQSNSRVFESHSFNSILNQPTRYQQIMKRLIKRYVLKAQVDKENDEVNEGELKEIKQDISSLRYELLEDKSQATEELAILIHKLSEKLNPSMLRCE

[7] = Kinetic solubility of the compound in ph 7.4 PBS buffer measured after 24 hrs shaken by HPLC and UPLC system; type: physicochemical; details: read-out: Kinetic_solubility
[8] = Cytotoxicity against Sprague-Dawley rat primary hippocampal cells at 100 nM; type: toxicity, cell-based; details: hippocampal neurone, 0.1 µM
[9] = tested on: Hippocampal neurone; assay: Rescuing beta-amyloid induced neuronal cell damage in Sprague-Dawley rat primary hippocampal cell culture (composed of 60% primary neuron, 20% microglia and 20% astrocyte) assessed as decrease in soluble oligomeric Abeta-containing media (7PA2 cells) induced synaptic toxicity at 250 nM; type: functional, cell-based

## CCOC(=O)c1cnn(-c2ccc(NC(=O)C(Cl)=C(Cl)Cl)cc2)c1C(F)(F)F
[1]
  Activity: inactive
[2]
  Activity: inactive
[3]
  Activity: inactive
[4]
  Activity: inactive
[5]
  Activity: inactive
[6]; filed as antagonist
  inhibition: > 80%

## O=C(NC1CC1)c1cnn(-c2ccc(-n3ccc(Cl)c(Cl)c3=O)cc2)c1C(F)(F)F
[6]
  inhibition: < 80%

## CCNC(=O)c1nnn(-c2ccc(-n3ccc(Cl)c(Cl)c3=O)cc2)c1C(F)(F)F
[6]
  inhibition: < 80%

## CCNC(=O)c1cnn(-c2ccc(-n3ccc(Cl)c(Cl)c3=O)cc2)c1C#N
[6]; filed as antagonist
  inhibition: > 80%

## CCNC(=O)c1cnn(-c2ccc(-n3ccc(Cl)c(Br)c3=O)cc2)c1C(F)(F)F
[6]
  inhibition: < 80%

## CCNC(=O)c1sc(-c2ccc(-n3ccc(Cl)c(Cl)c3=O)cc2)nc1C(F)(F)F
[6]
  inhibition: < 80%

## CCNC(=O)c1cnn(-c2ccc(-n3ccc(Cl)c(Cl)c3=O)cn2)c1C(F)(F)F
[6]
  inhibition: < 80%

## CCCNC(=O)c1cnn(-c2ccc(-n3ccc(Cl)c(Cl)c3=O)cc2)c1C(F)(F)F
[6]
  inhibition: < 80%

## CCNC(=O)c1cnn(-c2ccc(-n3ccc(Cl)c(Cl)c3=O)cc2)c1S(C)(=O)=O
[6]
  inhibition: < 80%

## CCC(=O)Nc1cnn(-c2ccc(-n3ccc(Cl)c(Cl)c3=O)cc2)c1C(F)(F)F
[6]; filed as antagonist
  inhibition: > 80%

## CC(C)CNC(=O)c1cnn(-c2ccc(-n3ccc(Cl)c(Cl)c3=O)cc2)c1C(F)(F)F
[6]; filed as antagonist
  inhibition: > 90%

## CCNC(=O)c1cnn(-c2ccc(-n3ccc(OC)c(Cl)c3=O)cc2)c1C(F)(F)F
[6]
  inhibition: < 80%

## CCNC(=O)c1cnn(-c2ccc(-n3ccc(Cl)c(Cl)c3=O)cc2)c1Cl
[6]
  inhibition: < 80%

## CCc1nnc(-c2cnn(-c3ccc(-n4ccc(Cl)c(Cl)c4=O)cc3)c2C(F)(F)F)o1
[6]; filed as antagonist
  inhibition: > 90%

## O=C(c1cnn(-c2ccc(-n3ccc(Cl)c(Cl)c3=O)cc2)c1C(F)(F)F)N1CCCC1
[6]; filed as antagonist
  inhibition: > 80%

## CCOCc1cnn(-c2ccc(-n3ccc(Cl)c(Cl)c3=O)cc2)c1C(F)(F)F
[6]
  inhibition: < 80%

## CCNC(=O)c1cnn(-c2ccc(-n3ccc(Cl)c(Cl)c3=O)cc2)c1
[6]; filed as antagonist
  inhibition: > 97%

## CCNC(=O)c1ncn(-c2ccc(-n3ccc(Cl)c(Cl)c3=O)cc2)c1C(F)(F)F
[6]; filed as antagonist
  inhibition: > 90%

## CCNC(=O)c1cnn(-c2ccc(-n3ccc(C(F)(F)F)c(Cl)c3=O)cc2)c1C(F)(F)F
[6]; filed as antagonist
  inhibition: > 80%

## CCCC(=O)c1cnn(-c2ccc(-n3ccc(Cl)c(Cl)c3=O)cc2)c1C(F)(F)F
[6]
  inhibition: < 80%

## CCCCNC(=O)c1cnn(-c2ccc(-n3ccc(Cl)c(Cl)c3=O)cc2)c1C(F)(F)F
[6]
  inhibition: < 80%

## NC(=O)c1cnn(-c2ccc(-n3ccc(Cl)c(Cl)c3=O)cc2)c1C(F)(F)F
[6]
  inhibition: < 80%

## CCN(CC)Cc1cnn(-c2ccc(-n3ccc(Cl)c(Cl)c3=O)cc2)c1C(F)(F)F
[6]; filed as antagonist
  inhibition: > 80%

## CCN(CC)C(=O)c1cnn(-c2ccc(-n3ccc(Cl)c(Cl)c3=O)cc2)c1C(F)(F)F
[6]; filed as antagonist
  inhibition: > 90%

## CS(=O)(=O)c1cnn(-c2ccc(-n3ccc(Cl)c(Cl)c3=O)cc2)c1C(F)(F)F
[6]
  inhibition: < 80%

## CCNC(=O)c1cnn(-c2ccc(-n3ccc(O)c(Cl)c3=O)cc2)c1C(F)(F)F
[6]; filed as antagonist
  inhibition: > 90%

## CCNC(=O)c1cnn(-c2ccc(-n3ccc(Cl)c(Cl)c3=O)cc2)c1C(F)(F)F
[1]
  Activity: inactive
[2]
  Activity: inactive
[3]
  Activity: inactive
[7]
  solubility kinetic at 24 h: 144 µM (≈ 64.1 µg/mL)
[8]
  Activity: Non-toxic
[4]
  Activity: inactive
[9]
  Activity: Active
[5]
  Activity: inactive
[6]; filed as antagonist
  inhibition: > 80%

## CC(C)NC(=O)c1cnn(-c2ccc(-n3ccc(Cl)c(Cl)c3=O)cc2)c1C(F)(F)F
[6]
  inhibition: < 80%

## CCNC(=O)c1nn(-c2ccc(-n3ccc(Cl)c(Cl)c3=O)cc2)nc1C(F)(F)F
[6]; filed as antagonist
  inhibition: > 80%

## CC(=O)c1cnn(-c2ccc(-n3ccc(Cl)c(Cl)c3=O)cc2)c1C(F)(F)F
[6]; filed as antagonist
  inhibition: > 80%

## CCNC(=O)c1cn(-c2ccc(-n3ccc(Cl)c(Cl)c3=O)cc2)nc1C(F)(F)F
[6]; filed as antagonist
  inhibition: > 97%

## CNC(=O)c1cnn(-c2ccc(-n3ccc(Cl)c(Cl)c3=O)cc2)c1C(F)(F)F
[6]; filed as antagonist
  inhibition: > 80%
